# Source: article PMC7414031, “Correlation between hemolytic activity, cytotoxicity and systemic in vivo toxicity of synthetic antimicrobial peptides” (Scientific Reports, 2020)
# Square brackets hold non-standard residues; d marks the D form. Peptide text beside a SMILES is read from it. N(1-naphthylmethyl)Gly = O=C(O)CNCc1cccc2ccccc12; Nphe = O=C(O)CNCc1ccccc1; NBuGly = CCCCNCC(=O)O
# Legend:
# canine erythrocytes = experiment: in vitro; type: cell-based, dog; conditions: for IC10 haemolysis: canine erythrocytes; for IC50: red cells of canine
# Experimental: (§1) The haemolytic activity of the 24 structurally related peptides (Table 1) was evaluated in erythrocytes from four different species (human, canine, bovine and rat) employing standard methodology. The subsequent release of haemoglobin was used to assess haemolytic activity as function of peptide and peptidomimetic concentration, with concentrations ranging from 0.15 to 150 µM (Presented in whole in Supplementary information Table S1–S4).
# (§2) Human and rat (Sprague–Dawley) blood samples were purchased by Bioreclamation IVT (Westbury, NY, USA), collected in tubes containing heparin as anticoagulant and stored at 4 °C before use. Dog and bovine whole blood was collected from in-house animals at Zoetis Animal Health, Kalamazoo, Michigan and stored at 4 °C in tubes containing heparin as anticoagulant. 10 mL of each whole blood sample were centrifuged at 1,500 × g for 5 min and the resulting plasma fraction was removed from the samples. The pellets were washed with an equal volume (10 mL) of saline, mixing by inversion. The centrifuging and washing steps were repeated 5 times. After the last washing step, a volume of PBS was added, and the resulting samples were diluted 1:10 with PBS to yield an RBC concentration of ~ 5 × 10^8 RBC/mL. The assay was performed in a 384-well polypropylene microplate (Greiner 784201, Greiner Bio-One International, GMBH) through a Bravo Liquid Handling Platform 384 system (Agilent Technologies, Santa Clara, CA, USA) according to the previously published procedures. The compounds were tested in serial 1:1 dilutions in PBS, with final concentrations ranging from 150 to 1.2 µM. Melittin was used as reference lytic peptide. 1% TritonX100 and PBS were used as positive and negative (diluent) controls, respectively. The final concentrations were obtained by adding to the wells 7 µL of each solution, melittin or PBS, followed by 63 µL of RBCs to each well. The plate was sealed, shaken on a plate shaker for 20 s, incubated for one hour at 37 °C. Finally, it was centrifuged at 1,500 × g for 5 min at room temperature. 60 µL of supernatants were removed from all plate wells via a Bravo 384 robot and transferred to a flat-bottomed 384-well plate (Greiner UV-Star #7810801, Greiner Bio-One International, GMBH). The plate was centrifuged at 1,000 g for 1 min to remove air bubbles and optical density was measured at 405 nm using a plate reader. Percentage of haemolysis was calculated with the following equation: %haemolysis=(absorbance of test sample)-absorbance of diluent/absorbance of positive control-absorbance of diluent×100.
# in vitro [1] = type: cell-based, dog; conditions: dog
# Experimental: as §1, §2
# Pseudomonas aeruginosa = system: Pseudomonas aeruginosa; set-up: method as in PMID 30842436; conditions: cited from earlier work
# in vitro [2] = type: cell-based, human; conditions: human
# Experimental: as §1, §2
# human erythrocytes = experiment: in vitro; type: cell-based; conditions: for IC10 haemolysis: human erythrocytes; for IC50: red cells of human
# Experimental: as §1, §2
# in vitro [3] = type: cell-based, bovine; conditions: bovine
# Experimental: as §1, §2
# bovine erythrocytes = experiment: in vitro; type: cell-based; conditions: bovine erythrocytes
# Experimental: as §1, §2
# [4] = system: Staphylococcus pseudintermedius; conditions: cited from earlier work
# Staphylococcus aureus = system: Staphylococcus aureus; set-up: method as in PMID 30842436; conditions: cited from earlier work
# in vitro [5] = type: cell-based, rat (Sprague–Dawley); conditions: Sprague-Dawley, rat
# Experimental: as §1, §2
# rat erythrocytes = experiment: in vitro; type: cell-based, rat (Sprague–Dawley); conditions: for IC10 haemolysis: rat erythrocytes; for IC50: red cells of rat
# Experimental: as §1, §2
SMILES,IC50 (canine erythrocytes) [µM],IC50 (human erythrocytes) [µM],IC50 (rat erythrocytes) [µM],IC10 haemolysis (canine erythrocytes) [µM],"hemolysis at 1 h, 150 µM (in vitro [1]) [%]",MIC against Pseudomonas aeruginosa (Pseudomonas aeruginosa) [µg/mL],"hemolysis at 1 h, 150 µM (in vitro [2]) [%]",IC10 haemolysis (human erythrocytes) [µM],"hemolysis at 1 h, 150 µM (in vitro [3]) [%]",IC10 haemolysis (bovine erythrocytes) [µM],MIC against Staphylococcus pseudintermedius [4] [µg/mL],MIC against Staphylococcus aureus (Staphylococcus aureus) [µg/mL],"hemolysis at 1 h, 150 µM (in vitro [5]) [%]",IC10 haemolysis (rat erythrocytes) [µM],Haemolytic activity (in words) (human erythrocytes),Haemolysis at 80 µM (in words) (canine erythrocytes),Haemolysis at 80 µM (in words) (human erythrocytes),Haemolysis at 80 µM (in words) (rat erythrocytes)
"CCCCN(CC(=O)N[C@@H](CCCCN)C(=O)N(CC(=O)N(CC(=O)N(CC(N)=O)Cc1cccc2ccccc12)Cc1ccccc1)Cc1cccc2ccccc12)C(=O)[C@H](CCCCN)NC(=O)[C@@H](N)CCCCN [Compound 14, Lys-Lys-(N-Bu)Gly-Lys-(N1-Nal)Gly-(N-Phe)Gly-(N1-Nal)Gly] (H-KK[NBuGly]K[N(1-naphthylmethyl)Gly][Nphe][N(1-naphthylmethyl)Gly]-NH2)",> 150,118,> 150,26.23,28.1,32,66.4,54.0,13.9,123.9,4,8 to 16,31.6,93.1,amongst the top five most haemolytic compounds,–,–,–
"CC(C)C[C@@H](NC(=O)[C@H](CCCCN)NC(=O)[C@H](CCCCN)NC(=O)[C@@H](N)CCCCN)C(=O)N[C@H](Cc1ccc2ccccc2c1)C(=O)N[C@H](Cc1ccccc1)C(=O)N[C@H](Cc1ccc2ccccc2c1)C(N)=O [Compound 12, Lys-Lys-Lys-Leu-(2-Nal)Ala-Phe-(2-Nal)Ala] (HELM PEPTIDE1{K.K.K.[dL].[O=C([C@@H](Cc1ccc2ccccc2c1)N[*:1])[*:2]].[dF].[O=C([C@@H](Cc1ccc2ccccc2c1)N[*:1])[*:2]].[am]}$$$$V2.0)",> 150,> 150,> 150,29.3,50.2,32,43.5,34.6,< 8,–,2 to 4,8 to 16,17.9,105.8,–,–,–,–
"CC(C)C[C@@H](NC(=O)[C@H](CCCCN)NC(=O)[C@@H](N)CCCCN)C(=O)N[C@@H](CCCCN)C(=O)N[C@H](Cc1cccc2ccccc12)C(=O)N[C@H](Cc1ccccc1)C(=O)N[C@H](Cc1cccc2ccccc12)C(N)=O [Compound 10, Lys-Lys-Leu-Lys-(1-Nal)Ala-Phe-(1-Nal)Ala] (HELM PEPTIDE1{K.K.[dL].K.[O=C([C@@H](Cc1cccc2ccccc12)N[*:1])[*:2]].[dF].[O=C([C@@H](Cc1cccc2ccccc12)N[*:1])[*:2]].[am]}$$$$V2.0)",> 150,> 150,> 150,43.4,36.3,16 to 32,< 8,> 150,< 8,–,4 to 8,16,< 8,> 150,–,–,–,–
"CC(C)C[C@@H](NC(=O)[C@H](CCCCN)NC(=O)[C@@H](Cc1ccc2ccccc2c1)NC(=O)[C@@H](Cc1ccccc1)NC(=O)[C@H](N)Cc1ccc2ccccc2c1)C(=O)N[C@@H](CCCCN)C(=O)N[C@@H](CCCCN)C(N)=O [Compound 3, (2-Nal)Ala-Phe-(2-Nal)Ala-Lys-Leu-Lys-Lys] (HELM PEPTIDE1{[N[C@H](Cc1ccc2ccccc2c1)C(=O)[*:2]].[dF].[O=C([C@@H](Cc1ccc2ccccc2c1)N[*:1])[*:2]].K.[dL].K.K.[am]}$$$$V2.0)",> 150,> 150,> 150,118.3,10.5,> 64,< 8,> 150,< 8,–,16,32 to 64,< 8,> 150,–,–,–,–

# The next lines start with results.
IC50 (canine erythrocytes) [µM],IC50 (human erythrocytes) [µM],IC50 (rat erythrocytes) [µM],SMILES,IC10 haemolysis (canine erythrocytes) [µM],"hemolysis at 1 h, 150 µM (in vitro [1]) [%]",MIC against Pseudomonas aeruginosa (Pseudomonas aeruginosa) [µg/mL],"hemolysis at 1 h, 150 µM (in vitro [2]) [%]",IC10 haemolysis (human erythrocytes) [µM],"hemolysis at 1 h, 150 µM (in vitro [3]) [%]",IC10 haemolysis (bovine erythrocytes) [µM],MIC against Staphylococcus pseudintermedius [4] [µg/mL],MIC against Staphylococcus aureus (Staphylococcus aureus) [µg/mL],"hemolysis at 1 h, 150 µM (in vitro [5]) [%]",IC10 haemolysis (rat erythrocytes) [µM],Haemolytic activity (in words) (human erythrocytes),Haemolysis at 80 µM (in words) (canine erythrocytes),Haemolysis at 80 µM (in words) (human erythrocytes),Haemolysis at 80 µM (in words) (rat erythrocytes)
> 150,> 150,> 150,"CCCC[C@H](NC(=O)[C@H](CCCCN)NC(=O)[C@H](CCCCN)NC(=O)[C@@H](N)CCCCN)C(=O)N[C@@H](Cc1cccc2ccccc12)C(=O)N[C@@H](Cc1ccccc1)C(=O)N[C@@H](Cc1cccc2ccccc12)C(N)=O [Compound 20, Lys-Lys-Lys-Nle-(1-Nal)Ala-Phe-(1-Nal)Ala] (HELM PEPTIDE1{K.K.K.[Nle].[O=C([C@H](Cc1cccc2ccccc12)N[*:1])[*:2]].F.[O=C([C@H](Cc1cccc2ccccc12)N[*:1])[*:2]].[am]}$$$$V2.0)",45.8,36,16,27.5,91.3,20.1,94.7,16 to 32,> 64,< 8,> 150,–,–,–,–
71.2,> 150,> 150,"CCCC[C@H](NC(=O)[C@H](CCCCN)NC(=O)[C@H](CCCCN)NC(=O)[C@@H](N)CCCCN)C(=O)N[C@@H](Cc1ccc2ccccc2c1)C(=O)N[C@@H](Cc1ccc(O)cc1)C(=O)N[C@@H](Cc1ccc2ccccc2c1)C(N)=O [Compound 22, Lys-Lys-Lys-Nle-(2-Nal)Ala-Tyr-(2-Nal)Ala] (HELM PEPTIDE1{K.K.K.[Nle].[O=C([C@H](Cc1ccc2ccccc2c1)N[*:1])[*:2]].Y.[O=C([C@H](Cc1ccc2ccccc2c1)N[*:1])[*:2]].[am]}$$$$V2.0)",30.9,83,64,23.7,88.3,< 8,–,2 to 4,64,24.2,83.0,–,–,–,–
87,109,87.7,"CC(C)C[C@H](NC(=O)[C@H](CCCCN)NC(=O)[C@H](CCCCN)NC(=O)[C@@H](N)CCCCN)C(=O)N[C@@H](Cc1ccc2ccccc2c1)C(=O)N[C@@H](Cc1ccc(O)cc1)C(=O)N[C@@H](Cc1ccc2ccccc2c1)C(N)=O [Compound 17, Lys-Lys-Lys-Leu-(2-Nal)Ala-Tyr-(2-Nal)Ala] (HELM PEPTIDE1{K.K.K.L.[O=C([C@H](Cc1ccc2ccccc2c1)N[*:1])[*:2]].Y.[O=C([C@H](Cc1ccc2ccccc2c1)N[*:1])[*:2]].[am]}$$$$V2.0)",59.6,100,> 64,78.1,61.1,19.9,81.4,16,> 64,100,74.7,–,–,–,–
20.8,51.1,74.9,"CC(C)C[C@H](NC(=O)[C@H](CCCCN)NC(=O)[C@H](CCCCN)NC(=O)[C@@H](N)CCCCN)C(=O)N[C@@H](Cc1cccc2ccccc12)C(=O)N[C@@H](Cc1ccc(O)cc1)C(=O)N[C@@H](Cc1cccc2ccccc12)C(N)=O [Compound 19, Lys-Lys-Lys-Leu(1-Nal)Ala-Tyr-(1-Nal)Ala] (HELM PEPTIDE1{K.K.K.L.[O=C([C@H](Cc1cccc2ccccc12)N[*:1])[*:2]].Y.[O=C([C@H](Cc1cccc2ccccc12)N[*:1])[*:2]].[am]}$$$$V2.0)",13.2,101,> 64,82.7,13.5,< 8,–,–,> 64,101,45.0,–,near total haemolysis,near total haemolysis,near total haemolysis
